Like-named read-outs stand apart in the source and are kept apart here. Marks after values point to notes of the source that are not given here.
Tests used:
[1] = in vitro; conditions: African green monkey
[2] = tested on: measles virus (CC strain); assay: microbe, parasite or virus in culture; format: cell-based
[3] = Cytotoxicity in the human norovirus replicon assay (HG23 cells); conditions: human, HG23 Nov replicon cells
[4] = tested on: human norovirus genogroup I NoV (Norwalk virus replicon) in HG23 cells; assay: Human norovirus antiviral assay, qRT PCR in HG23 NoV replicon cells; format: cell-based; conditions: for EC50: Norwalk virus
[5] = in vitro; conditions: African green monkey; remark: listed apart in the source
[6] = tested on: enterovirus-71 (Tainan/4643/98 strain); assay: organism not typed; format: cell-based
[7] = tested on: Huh7 cells
[8] = tested on: MERS-CoV (EMC strain); assay: microbe, parasite or virus in culture; format: cell-based
[9] = tested on: Vero 76 cells
[10] = tested on: tacaribe virus (TRVL11573 strain); assay: microbe, parasite or virus in culture; format: cell-based; conditions: for EC50: read-out: Tacaribe virus EC50 TRVL 11573 strain
[11] = tested on: Vero cells; conditions: African green monkey
[12] = tested on: yellow fever virus (YFV 17D strain); assay: microbe, parasite or virus in culture; format: cell-based
[13] = in vitro; conditions: human
[14] = tested on: dengue virus 2 (New Guinea C strain); assay: microbe, parasite or virus in culture; format: cell-based
[15] = tested on: chikungunya virus (S27 strain); assay: microbe, parasite or virus in culture; format: cell-based
[16] = in vitro; conditions: dog
[17] = tested on: influenza A (H1N1) virus (California/07/2009 strain); assay: microbe, parasite or virus in culture; format: cell-based
[18] = Measles morbillivirus, Vero 76, read-out: Measles EC50 CC strain
[19] = HG23 Nov replicon cells, qRT PCR intracellular RNA, read-out: EC50 human norovirus
[20] = read-out: Measles EC50 CC strain
[21] = Vero 76, read-out: EC50 enterovirus-71
[22] = read-out: Yellow fever virus CC50 Huh7, Neutral Red, YFV screen
[23] = read-out: MERS-CoV CC50 Vero 76, Neutral Red, MERS-CoV screen
[24] = Mammarenavirus tacaribeense, Vero
[25] = Yellow fever virus, Huh-7, read-out: Yellow fever virus EC50 YFV 17D strain
[26] = read-out: Yellow fever virus EC50 YFV 17D strain
[27] = Dengue virus, Huh-7, read-out: EC50 dengue virus 2
[28] = Middle East respiratory syndrome-related coronavirus, Vero 76, read-out: MERS-CoV EC50 EMC strain
[29] = read-out: MERS-CoV EC50 EMC strain
[30] = Chikungunya virus, Vero 76, read-out: EC50 chikungunya virus
[31] = read-out: EC50 chikungunya virus
[32] = Influenza A virus, H1N1, MDCK, read-out: EC50 California/07/2009 strain
[33] = read-out: Yellow fever virus CC50 Huh7, Visual, YFV screen

Row | SMILES | CC50 ([1]; Measles CC50 Vero 76) | EC50 [2, 18] | CC50 at 3 days [3] | EC50 [4, 19] | CC50 ([1]; MERS-CoV CC50 Vero 76) | CC50 ([5]; Tacaribe virus CC50 Vero) | EC50 [2, 20] | EC50 [6, 21] | CC50 ([7]; human) | CC50 [7, 22] | CC50 [9, 23] | EC50 [10, 24] | EC50 [12, 25] | CC50 ([13]; Yellow fever virus CC50 Huh7) | EC50 [14, 27] | EC50 ([14]; read-out: EC50 dengue virus 2) | EC50 [8, 28] | EC50 [15, 30] | CC50 ([16]; CC50 MDCK) | EC50 [17, 32] | other results
1 | Nc1ccn([C@@H]2O[C@H](CO)[C@@H](O)[C@H]2F)c(=O)n1 [2′-Fluoro-2′-deoxycytidine, 2′-fluoro-2′-deoxycytidine, reference compound] | > 100 mg/L | 1 mg/L | – | – | – | – | – | – | – | – | – | – | – | – | – | – | – | – | – | – | Measles EC50 CC strain [2]: 0.95^d μg/mL
2 | C[C@@]1(O)[C@H](O)[C@@H](CO)O[C@H]1n1ccc(N)nc1=O [2′C Methyl Cytidine, 2′-C-Methylcytidine, reference compound] | – | – | > 25 µM | 1.57 µM | – | – | – | – | – | – | – | – | – | – | – | – | – | – | – | – | –
3 | C=C(OCC)c1ncnc2c1ccn2[C@@H]1O[C@H](CO)[C@@H](O)[C@H]1O [3.1b, 6-(1-Ethoxyvinyl)-9-β-D-ribofuranosyl-7-deazapurine] | > 100 µM | > 100 µM | 60.5 µM | – | 52 µM | 100 µM | 64 µM | > 84 µM | 8.6 µM | 22 µM | 86 µM | 44 µM | > 28 µM | 28 µM | – | – | – | – | – | – | EC50 ([6]; read-out: EC50 enterovirus-71): 90 µM; activity against MERS-CoV in words [8]: moderately active with low selectivity index; CC50 ([9]; African green monkey): 100 µM; EC50 [10]: 39 µM; EC50 ([4]; HG23, read-out: EC50 human norovirus): 0.007 µM; CC50 [11]: 99 µM; EC50 [12, 26]: > 22 µM; CC50 ([13]; CC50): 8.5 µM
4 | OC[C@H]1O[C@@H](n2ccc3c(C#Cc4ccc(F)cc4)ncnc32)[C@H](O)[C@@H]1O [3.1h, 6-((4-Fluorophenyl)ethynyl)-9-β-D-ribofuranosyl-7-deazapurine] | 28 µM | 6.2 µM | 38.5 µM | < 0.001 µM | 32 µM | 24 µM | 7.1 µM | > 39 µM | – | 30 µM | 29 µM | 24 µM | 2.2 µM | 32 µM | > 32 µM | > 29 µM | > 32 µM | > 36 µM | – | – | CC50 ([1]; CC50): 36 µM; EC50 ([6]; read-out: EC50 enterovirus-71): > 46 µM; EC50 [8, 29]: > 29 µM; EC50 [10]: > 23 µM; activity against human norovirus in words [4]: low nanomolar activity and high selectivity; EC50 [15, 31]: 32 µM; CC50 [11]: 23 µM; EC50 [12, 26]: 2.3 µM
5 | OC[C@H]1O[C@@H](n2ccc3c(C#Cc4cccc(F)c4)ncnc32)[C@H](O)[C@@H]1O [3.1i, 6-((3-Fluorophenyl)ethynyl)-9-β-D-ribofuranosyl-7-deazapurine] | 24 µM | 3.2 µM | – | – | 32 µM | 12 µM | 3.6 µM | > 32 µM | 22 µM | 30 µM | – | > 12 µM | 1.2 µM | 32 µM | 2.6 µM | 2.7 µM | > 32 µM | > 32 µM | – | – | EC50 ([6]; read-out: EC50 enterovirus-71): > 28 µM; EC50 [10]: > 11 µM; EC50 [15, 31]: > 30 µM; CC50 [11]: 11 µM; EC50 [12, 26]: 0.85 µM; CC50 ([13]; CC50): 24 µM
6 | C#Cc1cn([C@@H]2O[C@H](CO)[C@@H](O)[C@H]2O)c2ncnc(CC)c12 [3.1l, 6-Ethyl-7-ethynyl-9-β-D-ribofuranosyl-7-deazapurine] | – | 72 µM | 0.455 µM | 0.393 µM | > 100 µM | – | > 100 µM | > 100 µM | 51 µM | 92 µM | > 100 µM | > 100 µM | > 100 µM | > 100 µM | > 100 µM | > 51 µM | – | > 100 µM | > 100 µM | 0.34 µM | EC50 ([17]; read-out: EC50 California/07/2009 strain): 0.52 µM; activity against human norovirus in words [4]: no promising activity; EC50 [12, 26]: > 92 µM
7 | C=Cc1cn([C@@H]2O[C@H](CO)[C@@H](O)[C@H]2O)c2ncnc(CC)c12 [3.1m, 6-Ethyl-7-vinyl-9-β-D-ribofuranosyl-7-deazapurine] | – | 25 µM | 14.6 µM | 3.35 µM | > 100 µM | – | 43 µM | > 100 µM | – | 20 µM | > 100 µM | > 100 µM | – | – | 32 µM | > 19 µM | 22 µM | > 100 µM | > 100 µM | > 100 µM | CC50 [7, 33]: 4.6 µM; EC50 [8, 29]: 14 µM; activity against human norovirus in words [4]: no promising activity
8 | CCc1ncnc2c1c(C#CC1CC1)cn2[C@@H]1O[C@H](CO)[C@@H](O)[C@H]1O [3.1n, 6-Ethyl-7-cyclopropylethynyl-9-β-D-ribofuranosyl-7-deazapurine] | > 100 µM | 64 µM | 0.342 µM | 0.062 µM | 100 µM | > 100 µM | 33 µM | > 100 µM | – | 21 µM | > 100 µM | > 100 µM | – | – | 13 µM | > 8.3 µM | 10 µM | > 100 µM | > 100 µM | > 100 µM | CC50 ([1]; CC50): > 100 µM; CC50 [7, 33]: 100 µM; activity against MERS-CoV in words [8]: moderately active with low selectivity index; EC50 [8, 29]: 5.7 µM; activity against human norovirus in words [4]: no promising activity
9 | CCc1ncnc2c1c(I)cn2[C@@H]1O[C@H](CO)[C@@H](O)[C@H]1O [3.1o, 6-Ethyl-7-iodo-9-β-D-ribofuranosyl-7-deazapurine] | – | 100 µM | – | – | > 100 µM | – | > 100 µM | > 100 µM | 64 µM | 85 µM | > 100 µM | > 100 µM | > 100 µM | > 100 µM | > 68 µM | > 64 µM | > 100 µM | > 100 µM | > 100 µM | > 100 µM | EC50 [8, 29]: 68 µM; EC50 [12, 26]: > 85 µM; CC50 ([13]; CC50): 68 µM
10 | CCc1ncnc2c1c(Cl)cn2[C@@H]1O[C@H](CO)[C@@H](O)[C@H]1O [3.1p, 6-Ethyl-7-chloro-9-β-D-ribofuranosyl-7-deazapurine] | – | 100 µM | – | – | > 100 µM | – | > 100 µM | > 100 µM | 38 µM | > 100 µM | > 100 µM | 100 µM | > 100 µM | > 100 µM | 32 µM | > 38 µM | 100 µM | > 100 µM | > 100 µM | > 100 µM | EC50 [8, 29]: > 100 µM; EC50 [10]: > 100 µM; CC50 ([13]; CC50): 68 µM
11 | CCc1ncnc2c1c(Br)cn2[C@@H]1O[C@H](CO)[C@@H](O)[C@H]1O [3.1q, 6-Ethyl-7-bromo-9-β-D-ribofuranosyl-7-deazapurine] | – | > 100 µM | – | – | > 100 µM | – | – | > 100 µM | 47 µM | > 100 µM | > 100 µM | > 100 µM | > 100 µM | > 100 µM | > 68 µM | > 47 µM | > 100 µM | – | > 100 µM | > 100 µM | CC50 ([13]; CC50): 68 µM
12 | NC(=O)c1ncn([C@@H]2O[C@H](CO)[C@@H](O)[C@H]2O)n1 [Ribavirin, ribavirin, reference compound] | – | – | – | – | – | > 1000 mg/L | – | – | – | – | – | 9.2 mg/L | – | – | – | – | – | – | > 1000 mg/L | 2.2 mg/L | CC50 ([5]; CC50): > 2950 µM; CC50 ([16]; CC50): > 4100 µM; EC50 California/07/2009 strain [17]: 2.4^d μg/mL; EC50 ([17]; Influenza A virus, H1N1, MDCK, read-out: EC50 Influenza A (H1N1)): 10.2 µM; Tacaribe virus EC50 TRVL 11573 strain [10]: 7.8^d μg/mL; CC50 [11]: > 3600 µM; Tacaribe virus CC50 Vero [11]: 970^d μg/mL
